Data from PubChem BioAssay (NCI).
Where “and” joins values, the source holds several entries; their conditions need not be identical. Equal entries are not always repeated.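 Exposure lasted 48 hours, with cells grown in 96-well plates and compounds tested at five concentrations. GI50 marks 50% less growth. TGI: concentration producing complete growth inhibition.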

Columns and labels:
Assay in all cases: NCI-60 cell line screen, 48 h
BT-549 breast = tested on: BT-549 breast
CAKI-1 renal = tested on: CAKI-1 renal
MALME-3M melanoma = tested on: MALME-3M melanoma
SN12C renal = tested on: SN12C renal
SNB-19 CNS = tested on: SNB-19 CNS
TK-10 renal = tested on: TK-10 renal
U251 CNS = tested on: U251 CNS
UO-31 renal = tested on: UO-31 renal

Row | SMILES | GI50 (BT-549 breast) | TGI (BT-549 breast) | GI50 (CAKI-1 renal) | TGI (CAKI-1 renal) | GI50 (MALME-3M melanoma) | TGI (MALME-3M melanoma) | GI50 (SN12C renal) | TGI (SN12C renal) [µM] | GI50 (SNB-19 CNS) | TGI (SNB-19 CNS) | GI50 (TK-10 renal) | TGI (TK-10 renal) | GI50 (U251 CNS) | TGI (U251 CNS) | GI50 (UO-31 renal) | TGI (UO-31 renal)
1 | Oc1cccc(-c2nc(N3CCOCC3)c3oc4ncccc4c3n2)c1 | 0.0515 µM and 0.036 µM | 1.18 µM and 1.15 µM | 0.318 µM and 0.342 µM | 2.24 µM and 7.38 µM | 0.0373 µM and 0.0287 µM | 0.395 µM and 0.264 µM | 0.0923 µM and 0.136 µM | > 100 | 0.358 µM and 0.247 µM | 7.43 µM and 6.83 µM | 1.26 µM and 1.51 µM | 4.01 µM and 4.58 µM | 0.346 µM and 0.384 µM | > 44.5 µM and 10.9 µM | 0.0354 µM and 0.0315 µM | 0.571 µM and 0.449 µM
2 | Cc1cc(C)c2nccc(NCCCN(C)C)c2c1[N+](=O)[O-] |  | > 100 µM |  | > 100 µM |  | 36.4 µM |  | > 100 |  | > 100 µM |  | > 100 µM |  | > 100 µM |  | 42.8 µM
3 | N#CC1=C(N)Oc2c(sc3c(Br)cccc23)C1c1ccc(F)cc1 (stereo not drawn) | 1.01 µM | 19.3 µM | 0.437 µM | 31.9 µM |  |  | 1.22 µM | 18.7 | 0.719 µM | 25 µM | 0.436 µM | 15.8 µM | 0.473 µM | 13.4 µM | 0.515 µM | 20.1 µM
4 | NCCNc1nc2ccccc2c2c(=O)c3cc(F)cc(Cl)c3sc12 | 1.55 µM | 2.93 µM | 1.41 µM | 2.8 µM | 1.83 µM | 3.35 µM | 1.65 µM | 3.17 |  |  |  |  | 1.22 µM | 2.66 µM | 1.22 µM | 2.49 µM
5 | CC(C)(C)OC(=O)n1c(Cl)c(C(=O)N=C=S)c2ccccc21 | 30.9 µM | 91.7 µM | 34.6 µM | 92 µM |  |  | 67.1 µM | > 100 | 44.4 µM | > 100 µM | 27.3 µM | > 100 µM | 34.2 µM | > 100 µM | 18.5 µM | 35.8 µM
6 | C/C(=N\O)[C@H]1CC[C@@]2(C)[C@@H]3CC[C@H]4C(C)(C)/C(=N/O)CC[C@@]45CC35CC[C@]12C (stereo partly drawn) | 2.65 µM | 9.59 µM |  |  |  |  | 6.58 µM | > 16.7 | 8.21 µM | > 16.7 µM | 8.17 µM | > 16.7 µM | 3.51 µM | 6.81 µM |  | 
7 | O=C1Nc2ccc(Br)cc2C1=Nc1ccc(Cl)cc1 |  |  |  | > 100 µM |  | 48.5 µM |  | 31.2 |  | 97 µM |  | 51.4 µM |  | 88.8 µM |  | 28.9 µM
8 | Cc1nnc(N=Nc2c(O)[nH]c3ccccc23)[nH]c1=O |  | > 100 µM |  |  |  | > 100 µM |  | > 100 |  | > 100 µM |  | > 100 µM |  | > 100 µM |  | > 100 µM
9 | Cc1cc(S(N)(=O)=O)c(S/C(=N\NS(=O)(=O)c2ccccc2)c2ccc(Cl)c(Cl)c2)cc1Cl | 38.8 µM | > 100 µM | 36.5 µM | > 100 µM |  |  | 34.1 µM | > 100 | 78.8 µM | > 100 µM | 52 µM | > 100 µM | 28.8 µM | > 100 µM | 54.5 µM | > 100 µM
10 | Cc1cc2c(-c3nc4ccccn4c3NC34CC5CC(CC(C5)C3)C4)c(O)c(O)cc2c(O)c1-c1c(C)cc2c(-c3nc4ccccn4c3NC34CC5CC(CC(C5)C3)C4)c(O)c(O)cc2c1O | 0.105 µM | 5.96 µM |  |  | 0.574 µM | > 25 µM | 0.716 µM | > 25 | 0.214 µM | 3.99 µM | 0.794 µM | > 25 µM | 0.106 µM | 3.3 µM | 0.657 µM | 4.16 µM
11 | COc1ccc(C2NC(=S)NC3=C2COc2ccc(F)cc23)cc1OC (stereo not drawn) | 27.9 µM | 83.3 µM | 15.8 µM | 65 µM |  |  | 15.1 µM | 50.1 | 46.7 µM | > 100 µM | 31.2 µM | > 100 µM | 12.7 µM | 29.5 µM | 39.2 µM | > 100 µM
12 | N#Cc1c(-c2ccc(Cl)cc2)csc1NC(=O)Nc1cccc(C(F)(F)F)c1 | 2.62 µM | 9.23 µM | 2.7 µM | 10.5 µM |  |  | 2.93 µM | 10.7 | 3.39 µM | 13.4 µM | 2.23 µM | 8.95 µM | 2.09 µM | 5.46 µM | 1.8 µM | 5.48 µM
13 | CCCCCCCCCCCCCCCCCCNC(=O)[C@H]1CSC(c2ccc(F)c(OC)c2)N1 (stereo partly drawn) | 0.974 µM | 1.85 µM | 0.846 µM | 1.58 µM | 0.951 µM | 1.82 µM | 0.805 µM | 1.72 | 0.996 µM | 1.96 µM |  |  | 0.866 µM | 1.6 µM | 5.57 µM | > 50 µM
14 | CC(=O)Nc1ccc2c(c1)CN1C(=O)c3ccccc3C1=N2 |  |  | > 100 µM | > 100 µM | > 100 µM | > 100 µM |  |  | > 100 µM | > 100 µM |  |  | > 100 µM | > 100 µM | > 100 µM | > 100 µM
